Experiments:
[1] = system: sclera and retina of hamster eyes; test: Immunohistochemistry of hamster eyes (sclera, retina); format: in vivo; details: for c-Fos and NF-κB expression / MMP2 and TGF-β expression / TGF-β and MMP2 expression: LPS or PGN; for IL-10 and TNF-α levels: LPS or PGN treatment; for MMP2 and TGF-β expression: MFD hamsters; for TGF-β and MMP2 expression: hamsters without MFD
Description: Antigen retrieval was performed by boiling the slides in citrate buffer (pH 6.0); the sections were then stained with antibodies against IL-6, TNF-α, TGF-β, MMP2, c-Fos, NF-κB, and CHRM1 and 3. The EnVision System peroxidase kit (DAKO, Carpentaria, Calif., USA) was used to visualize immunoreactivity.

[2] = system: monocular form deprivation (MFD) Syrian hamster; test: Refractive power in monocular form deprivation (MFD) hamster model, streak retinoscope; format: in vivo, golden Syrian hamsters; details: LPS or 500 ng/mL PGN every second day for 21 days
[3] = system: monocular form deprivation (MFD) Syrian hamster; test: as above; format: in vivo, golden Syrian hamsters; details: for Myopia in the non-MFD eye: LPS and PGN but not PBS treatment; for Refractive power, BL: left eye before MFD / Refractive power, BR: right eye before MFD: LPS or PGN group, baseline; for Refractive error FR-BR / Refractive error FL-BL: LPS or PGN; for Refractive error FR-BR: MFD right eye; for Refractive error FL-BL: non-MFD left eye
Description: In this study, a total of 160 golden Syrian hamsters aged 3 weeks, weighing 80 to 90 g, and 20 albino guinea pigs, aged 2 to 3 weeks, were used for experiments. All animals were kept in a 12-hour light/dark cycle. All procedures were approved by the Institutional Animal Care and Use Committee of China Medical University and were conducted in accordance with the guidelines of the Use of Animals in Ophthalmic and Vision Research. Hamsters were raised with a right eyelid fusion for 21 days. Myopia was induced in the guinea pigs by covering the right eye with a cloth attached to the skin at a distance of at least 1 cm from the eye. MFD was induced in the right eye (with the left eye serving as a control) of animals randomly assigned to treatment or control groups (n=10 animals each) receiving daily applications of drug or phosphate-buffered saline (PBS), respectively, to both eyes.
(§1) The RE (i.e., spherical-component RE, which is defined as the mean RE in horizontal and vertical meridians) was measured using a hand-held streak retinoscope. Animals were anesthetized with 10% ether in O2. Ocular refraction was evaluated at the start and end of the experiment. At the end of the study, animals were sacrificed through CO2 asphyxiation according to the guidelines of the Public Health Service, Office of Laboratory Animal Welfare, National Institutes of Health, and American Association of Veterinary Medicine. Eyes were enucleated using a razor blade on an ice plate under a surgical microscope (Topcon, Tokyo, Japan) by cutting perpendicularly to the anterior-posterior axis approximately 1 mm posterior to the ora serrata. The iris and ciliary body of the anterior segment of the eye were separated. Posterior sclera was excised using a 7-mm-diameter trephine. The axial lengths were determined through A-scan ultrasonography (PacScan 300 Plus, NY, USA). The average of 10 unique measurements was used.

Syrian hamster = test: Refractive power of hamsters without MFD after LPS or PGN; format: in vivo; details: for Refractive power, BL: left eye before treatment / Refractive power, BR: right eye before treatment: LPS or PGN group, baseline; for Refractive power, FL: left eye after treatment / Refractive power, FR: right eye after treatment / Refractive error FL-BL / Refractive error FR-BR: LPS or PGN; for Refractive power, FL: left eye after treatment / Refractive power, FR: right eye after treatment: 21 days; for Refractive error FL-BL: left eye; for Refractive error FR-BR: right eye
Description: as §1
To further test this possibility, LPS and PGN were applied to the eyes of hamsters without MFD.

MMP2 = test: Gelatin zymography of MMP2 activity in LPS-activated scleral fibroblasts and ARPE-19 cells; format: cell-based; details: LPS + 100 μM atropine or LPS + 50 μM diacerein; 48 hours
Description: To facilitate subsequent analysis, 1×10^6 cells were seeded in 24-well plates for at least 12 hours. […] To measure the MMP-2/MMP-9 activities, samples were separated using 8% SDS-PAGE containing 0.1% gelatin.

[4] = system: LEWIS rats, right eye induced myopia by FDM; test: Refractive error and axial length in FDM myopia LEWIS rats (diclofenac); format: in vivo
Description: Four weeks LEWIS rats were used in this example. […] The refractive error and axial length of right eye were measured by refractometer within three weeks and recorded in Table 14.

[5] = system: MFD-induced myopia in hamster; test: Effect of resveratrol on MFD-induced myopia in hamster (refractometer); format: in vivo; details: for Diopter, left eye (mean ± SD) / Diopter, right myopic eye (mean ± SD): 21 days
Description: 0.1141 g resveratrol (purchased from Sigma Aldrich Co.) powder was dissolved in 6 ml of ethanol to obtain resveratrol liquid. 1.46 g β-cyclodextrin (purchased from Sigma Aldrich Co.) was dissolved in 2 ml of sterile water to obtain a β-cyclodextrin solution (as a co-solvent); resveratrol liquid and β cyclodextrin were mixed in mole number of 1:2 by slowly adding dropwise β cyclodextrin solution into resveratrol liquid to form a mixture. The mixture was frozen drained, and then 5 ml artificial tears were added (purchased from Alcon company) to be re-dissolved to obtain 100 mM resveratrol solution. Resveratrol solution can be diluted by fetal bovine serum medium or artificial tears for various embodiments.
The refractive powers of hamsters were measured before experiment by refractometer (in China Medical University Hospital Department of Ophthalmology). The hamsters were administered artificial tears (referred to as control group) or various concentrations (3 mM, 30 mM, 100 mM) of resveratrol (experimental group) for five hamsters each group. The right eyes of the hamsters of each group were stitched; after 21 days, the stitches were all removed and then the refractive powers of each hamster were measured.

[6] = system: Human retinal pigment epithelium; test: Western blot of phosphorylated Akt and ERK after LPS in human retinal pigment epithelium; format: cell-based; details: 50 μM resveratrol pretreatment, then 500 ng/ml LPS
Description: Human retinal pigment epithelium was administrated 500 ng/ml LPS for 30 minutes to observe the expression of Akt and ERK.

[7] = system: monocyte chemoattractant protein-1 (MCP-1); test: LPS-induced MCP-1 expression in human retinal pigment epithelial cells; format: cell-based; details: 50 μM resveratrol and 1 μg/ml LPS for 24 hours
Description: Human retinal pigment epithelial cells were as model cells under LPS stimulation for 24 hours to induce inflammation and monocyte chemoattractant protein-1 (MCP-1), and then resveratrol was administered to detect the effect of suppressing inflammatory response.

[8] = system: sclera and retina of hamster eyes; test: Immunohistochemical analysis of COL1, TGF-β, TNF-α in resveratrol-treated hamster eyes; format: in vivo; details: 100 mM resveratrol
Description: […] Antigen retrieval was performed by boiling the slides in citrate buffer (pH 6.0); the sections were then stained with antibodies against IL-6, TNF-α, TGF-β, MMP2, c-Fos, NF-κB, and CHRM1 and 3. The EnVision System peroxidase kit (DAKO, Carpentaria, Calif., USA) was used to visualize immunoreactivity.

Retinal cell (R28) = test: Gene expression by real-time PCR in LPS-treated R28 retinal cells; format: cell-based, rat; details: R28; 100 ng/ml LPS for 4 hours
Description: (§2) R28 rat retinal epithelial cells were provided by Gail Seigel at the Ross Eye Institute (SUNY, Buffalo, N.Y., USA). The cells were cultured in Dulbecco's modified Eagle's medium (DMEM) with 10% fetal bovine serum (FBS) at 37° C. and 5% CO2, with medium replacement every 3 days to 4 days. Sclera were placed in a 60-mm culture dish in DMEM supplemented with 10% FBS to isolate primary scleral fibroblasts; those from fewer than three passages were used in experiments. […] Cell lysates were collected for quantitative (q)PCR to determine gene expression levels.
(§3) Total RNA was extracted using the RNeasy MiniKit (Qiagen, Valencia, Calif., USA), and 5 μg of RNA was reverse-transcribed to cDNA by using the Superscript First Strand Synthesis system (Invitrogen, Carlsbad, Calif., USA). Primers and probes used for qPCR were selected from the Universal Probes Library (Roche, West Sussex, UK). Transcript levels were normalized to those of glyceraldehyde 3-phosphate dehydrogenase in each sample.

Sclera fibroblast = test: Gene expression by real-time PCR in LPS-treated primary scleral fibroblasts; format: cell-based, hamster; details: sclera fibroblast; 100 ng/ml LPS for 4 hours
Description: as §2, §3

[9] = 3 × diclofenac (3 mg/ml solution), right eye, three weeks, mean ± standard error

Molecule: peptidoglycan [PGN]
- c-Fos and NF-κB expression [1]: stimulated
- IL-10 and TNF-α levels [1]: increased
- MMP2 and TGF-β expression [1]: upregulation
- TGF-β and MMP2 expression [1]: upregulation
- Refractive power, FL: left eye after MFD [2]: 6.78±0.63 D
- Refractive power, FR: right eye after MFD (occluded eye) [2]: 6.47±0.39 D
- Myopia in the non-MFD eye [3]: induced
- Refractive power, BL: left eye before MFD [3]: 11.73 ± 0.25 D
- Refractive power, BR: right eye before MFD [3]: 11.48 ± 0.49 D
- Refractive error FR-BR [3]: −4.90 ± 0.83 D
- Refractive error FL-BL [3]: −5.03 ± 0.43 D
- Refractive power, BL: left eye before treatment (Syrian hamster): 12.22 ± 0.35 D
- Refractive power, BR: right eye before treatment (Syrian hamster): 12.17 ± 1.04 D
- Refractive power, FL: left eye after treatment (Syrian hamster): 8.67±0.63 D
- Refractive power, FR: right eye after treatment (Syrian hamster): 9.14±1.21 D
- Refractive error FL-BL (Syrian hamster): −3.55 ± 0.35 D
- Refractive error FR-BR (Syrian hamster): −3.03 ± 1.04 D

Molecule: CC(=O)Oc1cccc2c1C(=O)c1c(OC(C)=O)cc(C(=O)O)cc1C2=O [diacerein]
- MMP2 activities in cells activated by LPS (MMP2): decreased

Molecule: O=C(O)Cc1ccccc1Nc1c(Cl)cccc1Cl [diclofenac]
- Inhibitory effect on myopia, comparison of concentrations ([4]; 3 mg/ml vs 6 mg/ml): better in the concentration of 3 mg/ml than in 6 mg/ml
- Δ Axial length [4, 9]: 1.04 ± 0.39 mm
- Δ Refractive error [4, 9]: 5.36 ± 4.05 D
- Δ Axial length ([4]; 6 × diclofenac (6 mg/ml solution), right eye, three weeks, mean ± standard error): 1.24 ± 0.55 mm
- Effect on myopia process ([4]; diclofenac solution 3 mg/ml and 6 mg/ml): significant inhibitory effect

Molecule: Oc1ccc(C=Cc2cc(O)cc(O)c2)cc1 [resveratrol]
- Diopter, left eye (mean ± SD) ([5]; 3 mM resveratrol): −0.17 ± 0.24 Diopter
- Diopter, right myopic eye (mean ± SD) ([5]; 3 mM resveratrol): −2.42 ± 1.30 Diopter
- Diopter, left eye (mean ± SD) ([5]; 30 mM resveratrol): −0.63 ± 0.41 Diopter
- Diopter, right myopic eye (mean ± SD) ([5]; 30 mM resveratrol): −2.46 ± 0.65 Diopter
- Diopter, left eye (mean ± SD) ([5]; 100 mM resveratrol): −0.25 ± 1.53 Diopter
- Diopter, right myopic eye (mean ± SD) ([5]; 100 mM resveratrol): −1.13 ± 1.47 Diopter
- Inhibition of myopia, comparison of concentrations ([5]; 100 mM vs 3 mM and 30 mM): most effective
- Expression of phosphorylated Akt and ERK [6]: decrease
- Expression of MCP-1 [7]: decreasing
- TNF-α expression in the retina [8]: follows the same trend as TGF-β
- Collagen I protein expression in the sclera ([8]; stitched right eye): recovered
- TGF-β expression in the retina ([8]; stitched right eye): reduction effect

Molecule: lipopolysaccharide [LPS]
- c-Fos and NF-κB expression [1]: stimulated
- IL-10 and TNF-α levels [1]: increased
- MMP2 and TGF-β expression [1]: upregulation
- TGF-β and MMP2 expression [1]: upregulation
- Refractive power, FL: left eye after MFD [2]: 7.79±0.88 D
- Refractive power, FR: right eye after MFD (occluded eye) [2]: 6.44±0.18 D
- Chrm 1 gene expression level (Retinal cell (R28)): 1.39 ± 0.13
- Chrm 2 gene expression level (Retinal cell (R28)): 0.45 ± 0.23
- Chrm 3 gene expression level (Retinal cell (R28)): 1.27 ± 0.2
- Chrm 4 gene expression level (Retinal cell (R28)): 0.94 ± 0.15
- Chrm5 gene expression level (Retinal cell (R28)): 0.75 ± 0.21
- Fos gene expression level (Retinal cell (R28)): 1.39 ± 0.11
- IL1b gene expression level (Retinal cell (R28)): 4.3 ± 0.25
- IL10 gene expression level (Retinal cell (R28)): 0.56 ± 0.19
- IL-6 gene expression level (Retinal cell (R28)): 2.63 ± 0.15
- MMP2 gene expression level (Retinal cell (R28)): 1.32 ± 0.13
- NFkB gene expression level (Retinal cell (R28)): 1.13 ± 0.11
- Tgfb1 gene expression level (Retinal cell (R28)): 1.18 ± 0.12
- Tnfa gene expression level (Retinal cell (R28)): 1.56 ± 0.17
- Chrm 1 gene expression level (Sclera fibroblast): 1.49 ± 0.18
- Chrm 2 gene expression level (Sclera fibroblast): 1.48 ± 0.17
- Chrm 3 gene expression level (Sclera fibroblast): 1.58 ± 0.15
- Chrm 4 gene expression level (Sclera fibroblast): 1.07 ± 0.23
- Chrm5 gene expression level (Sclera fibroblast): 0.93 ± 0.15
- Fos gene expression level (Sclera fibroblast): 1.00 ± 0.11
- IL1b gene expression level (Sclera fibroblast): 2.84 ± 0.21
- IL10 gene expression level (Sclera fibroblast): 0.56 ± 0.19
- IL-6 gene expression level (Sclera fibroblast): 3.02 ± 0.16
- MMP2 gene expression level (Sclera fibroblast): 1.79 ± 0.17
- NFkB gene expression level (Sclera fibroblast): 4.50 ± 0.27
- Tgfb1 gene expression level (Sclera fibroblast): 2.15 ± 0.23
- Tnfa gene expression level (Sclera fibroblast): 1.49 ± 0.15
- Myopia in the non-MFD eye [3]: induced
- Refractive power, BL: left eye before MFD [3]: 11.92 ± 0.56 D
- Refractive power, BR: right eye before MFD [3]: 12.30 ± 0.48 D
- Refractive error FR-BR [3]: −5.9 ± 0.54 D
- Refractive error FL-BL [3]: −4.13 ± 0.9 D
- Refractive power, BL: left eye before treatment (Syrian hamster): 12.28 ± 0.97 D
- Refractive power, BR: right eye before treatment (Syrian hamster): 12.25 ± 0.57 D
- Refractive power, FL: left eye after treatment (Syrian hamster): 8.33±0.96 D
- Refractive power, FR: right eye after treatment (Syrian hamster): 8.56±0.42 D
- Refractive error FL-BL (Syrian hamster): −3.95 ± 0.97 D
- Refractive error FR-BR (Syrian hamster): −3.69 ± 0.57 D
